The assay has as its system gliomas. The following applies: single dose administered two days before rQNestin34.5v.2. From the text: Mammals are able to rapidly counteract HSV1 in the brain through their initial immune responses.

Consider `O=P1(N(CCCl)CCCl)NCCCO1` (centres unmarked) [cyclophosphamide], for which the “effect on viral biodistribution, replication and efficacy” value was “significantly enhances viral biodistribution, replication and efficacy”; the “reduction of the dose of virus required to produce a survival effect” value is reported as “two orders of magnitude”.

For the origin of these results see patent publication US10806761B2, “Oncolytic HSV1 vector and methods of use” (THE BRIGHAM AND WOMEN'S HOSPITAL, INC., priority 2015, dated 2020).
